melting point [°C]	Compound
173 to 175	Cc1nc(N2CCCC(Cc3ccc(F)cc3)C2=O)sc1C(=O)NCc1cccc(F)c1 (centres undefined)
52 to 54	CC1(C)OCc2cc(C(=O)CBr)ccc2O1
148 to 150	CN(O)C(=O)NCCCCCCOc1ccc(-c2ccccc2)cc1
> 300	CC(C)(C)OC(=O)NC1CCN(c2ccc(C(=O)O)cc2)CC1
124 to 126	Cc1ccc(S(=O)(=O)NCCCCOc2ccc(-n3cccc3)cc2)cc1
115 to 116	CC1(C)CC(OC(=O)c2ccccc2)CC(C)(C)N1OCC=Cc1ccccc1
110 to 112	COC(=O)c1c(NC(C)C)cccc1S(=O)(=O)NC(C)(C)C
191	CC(C)(C)C(=O)Oc1cccc2c1C(=O)c1c(OC(=O)C(C)(C)C)cccc1C2C(=O)c1ccccc1
167 to 168	COc1cc(C(C)C)c(Oc2c(N)nc(N)nc2C2COC(C)(C)OC2)cc1I
113 to 115	CCCc1c(OCCCOc2ccc3c(=O)cc(C(=O)OC)oc3c2CCC)ccc(C(C)=O)c1O
120 to 121	CCCCOc1ccc(C[C@H](NC(=O)[C@H]2CC[C@H](C(C)C)CC2)C(=O)O)cc1
140 to 142	O=C(CCCCCC(=O)NCCc1c[nH]c2ccccc12)NO
214 to 215	COc1cc(C)nc2nc(S(=O)(=O)Nc3c(Cl)cccc3Cl)nn12
145 to 147	CN1CCN(c2nn(S(=O)(=O)c3ccccc3)c3ccc(Cl)cc23)CC1
188 to 192	CN(C)c1ccc(-n2c(CC(=O)O)c(C(=O)O)c3cc(Oc4ccc(OC(F)(F)F)cc4)ccc32)cc1
157 to 158	CCOc1cc(N)c([N+](=O)[O-])cc1NCCO
176 to 177	COC(=O)C(=NO)c1nc2cc(C)ccc2oc1=O
150 to 152	COCOc1ccc(-n2cc(C(=O)O)c(=O)cc2-c2ccc(N(C)C)cc2)cc1
54 to 55	CCC(=NOCc1ccc(Cl)cc1)c1cc(Cl)ccc1NS(=O)(=O)C(F)(F)F
98 to 100	COc1ccc2c(c1)CCC1C2CCC2(C)C(=NN(C)C)CCC12 (centres undefined)

melting point [°C]	Compound
53 to 54	CCCCCCCCCC(=O)c1cc(OC)c(Cl)cc1OC
169 to 171	CNC(=O)COc1ccc(C(=O)CN2CCN(c3ccncc3)CC2)cc1
105 to 106	CC(C)(C)C(=O)Nc1cc(Cl)c(Cl)cn1
213 to 215	CCCN=C(N)Nc1ccnc(CCCCc2ncc(C)c(O)n2)n1
115 to 116	CCCc1c(OCCCC#CC(=O)O)ccc(C(C)=O)c1O
206 to 207	O=C(O)c1cn(C2CCCC2)c2c(F)c(F)c(F)cc2c1=O
172 to 174	COc1nc(-c2ccccc2Cl)c2ccsc2n1
190	CC(C)(C)OC(=O)CN1CCOc2ccc([N+](=O)[O-])cc2C1=O
208 to 209	CON=C(C(=O)Nc1ccc(C(=O)O)cc1)c1ccc2c(c1)C(C)(C)CCC2(C)C
152 to 154	CCCCCCCCCC=COC1OC(CO)C(O)C(O)C1NC(C)=O (centres undefined)
84 to 85	CCCCCCCCCCCCCCCCCCNC(=O)OCC(CO)NC(=O)OC (centres undefined)
131 to 133	O=C1CCC([N+](=O)[O-])C(c2cccc(Cl)c2)N1 (centres undefined)
55	OC(CCCCBr)(c1ccc(F)cc1)c1ccc(F)cc1
153 to 156	CCc1nc2c(cnn2CC)c(NC2CCOCC2)c1CNC(=O)c1cc(C)cc(C(=O)NCc2ccc(Cl)c(-c3cccc(C=O)c3)c2)c1
153 to 155	Nc1cc(C(=O)O)cc(SCc2ccsc2)c1Oc1ccccc1
165 to 169	COC(=O)c1cc(OCc2c(C)cccc2C)c2nc(C)n(C)c2c1
305 to 308	O=c1[nH]c2cc(C(F)(F)F)cc(C(F)(F)F)c2[nH]c1=O
144 to 146	CC(=O)NC=Cc1ccc(OCC(O)CNC(C)C)cc1 (centres undefined)
127 to 130	CCOc1cc2c(Nc3cc(OC)c(Cl)cc3Cl)c(C#N)cnc2cc1OCCCN1CCN(CC)CC1

The remaining lines, values behind:

Compound	melting point [°C]
Cc1ncc(-c2ccc3[nH]c4c(cc(-c5ccc(Cl)cc5Cl)c(=O)n4C)c3c2)o1	338 to 340
O=C(Cc1cccc(C(F)(F)F)c1)Nc1c(Br)cccc1Br	169 to 170
Fc1ccc(-c2c3cccc(C(F)(F)F)c3nn2Cc2ccc(F)cc2Cl)cc1	78
CNC(=O)c1ccccc1Sc1ccc(F)cc1[N+](=O)[O-]	111 to 113
CC#CCOc1ccc(S(=O)(=O)C2(C(=O)O)CCN(Cc3ccc(C#N)cc3)CC2)cc1	110
CC(C)(C)NNC(=O)c1ccc(Cl)cc1	116 to 122
CC1C(=O)N(CC(=O)CCc2ccccc2)C1S(=O)Cc1ccccc1 (centres undefined)	87 to 94
Nc1c(CC(=O)O)cccc1Oc1ccccc1Cl	86 to 90
CCOC(=O)c1[nH]cc2c1NC1=C(C(=O)CNC1)C2c1ccc(Sc2nc3ccc(OC)cc3[nH]2)o1 (centres undefined)	248
CC(C)(C(N)=O)c1nnc2ccc(OCCCN3CCC(OC(c4ccccc4)c4ccccc4)CC3)nn12	133 to 136
CC(C)(C)C(=O)Oc1ccc(OC(=O)C(C)(C)C)c(C(=O)OCc2ccccc2)c1	90.5 to 91.8
COCCNC(=O)c1ccc(Br)c(C)c1	79 to 81
CCOC(=O)C(NC(=O)OC(C)(C)C)c1csc(NC(=O)CCl)n1 (centres undefined)	192 to 193
Cc1cc(C)c(Nc2nc(C)ccc2S(=O)(=O)c2ccc(OCc3ccccc3)cc2)c(C)c1	158 to 160
CCCCN(CCCC)Cc1nc(-c2ncn3c2CN(C)C(=O)c2cc(F)ccc2-3)no1	137 to 140
COc1ccc(CCC(=O)Nc2ccccc2C(=O)O)cc1OC	137
O=C(NC1CCN(CCCOc2ccc3c4c(c(=O)oc3c2)CCC4)CC1)c1cccnc1	199 to 200
COc1ccc2c(Cc3c(Cl)cncc3Cl)nnc(Oc3ccccc3)c2c1	130 to 132
COc1cc(=O)n(-c2cccc(C(F)(F)F)c2)nc1-c1ccnn1-c1ccccc1	165 to 167
CCOC(=O)ON(C(N)=O)[C@H]1C[C@@H](c2ccc(F)cc2)C1	124 to 126
COCOc1cc2c(cc1-c1cc(-c3ccc(C(=O)O)cc3)ccc1-c1ccccc1)C(C)(C)CCC2(C)C	90 to 94
CC1(c2cn(-c3c(Cl)cc(C(F)(F)F)cc3Cl)nc2C#N)CC1(Br)Br (centres undefined)	133 to 134
CCOC(=O)c1cc2occc2nc1C(=O)OCC	60 to 64
CCOC(=O)C1NCCN(C(=O)OC(C)(C)C)C1=O (centres undefined)	86 to 87
O=C1CCSc2c1ccc(Cl)c2Cl	93 to 102
C=CCOc1cc(F)c(C#N)c(OC(C(=O)OC)c2ccccc2C)c1 (racemic)	100 to 102
O=C(CNc1c(C(=O)O)[nH]c2cc(Cl)cc(Cl)c12)c1ccccc1Cc1ccccc1	234 to 235
c1ccc(-c2nn3cnnc3c3ccccc23)cc1	198 to 199
O=C(/C=C/c1ccc(OC(F)(F)F)cc1)/C=C/c1ccc(C(F)(F)F)cc1	97 to 99
CCNC(=O)n1c([Si](C)(C)C)cc2ccccc21	96 to 99

Source: a melting point compilation (Tetko et al.; mined from patent text by program, amines drawn as free bases though some values may be those of a salt)
